Measured values taken from US20260224527A1, “USES OF ANTI-PSYCHOTIC AGENTS” (LB PHARMACEUTICALS INC., priority 2023, published 2026).

Key:
PCP-treated rats [1] = assay: Novel Object Recognition (NOR) assay in scPCP model; assay type: in vivo, rat; settings: for effect on Discrimination Index (DI): 3 hr post-dose
Protocol: (§1) Differences in discrimination index ((time spent exploring novel−time spent exploring familiar)/total exploration time) are depicted. scPCP rats treated with risperidone (Risp) served as a positive control. […] Rats treated with cariprazine (Cari) served as a positive control.
Efficacy of LB-102, LB-103, and LB-104 at different doses was evaluated in rats in a Novel Object Recognition (NOR) assay, a well-established model recapitulating cognitive and negative aspects of the PANSS scale of schizophrenia. In this assay, animals were treated for several weeks with a low dose of phencyclidine (PCP) to impair the ability of the rat to discern between novel and familiar objects. Typically rats, like humans, would spend more time exploring a novel object than a familiar one.
In this NOR study the efficacies of LB-102, LB-103, and LB-104 were compared to known antipsychotic risperidone for its ability to restore normal differentiation between novel and familiar object exploration in PCP-treated rats. Cognitive measurements were taken at 3 hr post-dose for LB-102, LB-103, and LB-104 and 30 min for risperidone. The endpoint of this study was the Discrimination Index (DI), a normalized ratio of time spent exploring a novel object compared to a familiar one.

PCP-treated rats [2] = assay: Social interaction (sniffing index, SI) assay in scPCP model; assay type: in vivo, rat
Protocol: as §1
The sniffing component of the SI assay was carried out as described in (J. C. Neil, S. Barnes, S. Cook, B. Grayson, N. F. Iris, S. L. McLean, S. Snigdha, L. Rajagopa, and M. K. Harte, “Animal models of cognitive dysfunction and negative symptoms of schizophrenia: focus on NMDA receptor antagonism”, Pharmacol. Ther., 2010, 128, 419-423) in groups of 12 rats.

D1 receptor subtype = D1 receptor subtype (Homo sapiens, UniProt P21728); settings: cited from earlier work
Sequence of D1 receptor subtype (P21728 whole entry): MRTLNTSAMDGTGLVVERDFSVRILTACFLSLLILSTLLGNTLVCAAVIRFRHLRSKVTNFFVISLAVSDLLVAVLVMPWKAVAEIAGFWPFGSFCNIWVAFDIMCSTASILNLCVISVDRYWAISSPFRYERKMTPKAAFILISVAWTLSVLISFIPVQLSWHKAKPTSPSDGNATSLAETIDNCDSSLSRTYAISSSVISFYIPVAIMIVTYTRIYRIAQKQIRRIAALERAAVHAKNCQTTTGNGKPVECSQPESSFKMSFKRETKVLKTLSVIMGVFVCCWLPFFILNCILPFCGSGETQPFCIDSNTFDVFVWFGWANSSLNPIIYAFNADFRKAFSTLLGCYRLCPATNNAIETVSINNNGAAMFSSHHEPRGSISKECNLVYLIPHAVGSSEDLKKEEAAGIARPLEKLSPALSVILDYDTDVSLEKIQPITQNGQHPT

D4 receptor subtype = biological target: T1, D4 receptor subtype (Homo sapiens, UniProt P21917); settings: cited from earlier work
T1 sequence (P21917 1-419): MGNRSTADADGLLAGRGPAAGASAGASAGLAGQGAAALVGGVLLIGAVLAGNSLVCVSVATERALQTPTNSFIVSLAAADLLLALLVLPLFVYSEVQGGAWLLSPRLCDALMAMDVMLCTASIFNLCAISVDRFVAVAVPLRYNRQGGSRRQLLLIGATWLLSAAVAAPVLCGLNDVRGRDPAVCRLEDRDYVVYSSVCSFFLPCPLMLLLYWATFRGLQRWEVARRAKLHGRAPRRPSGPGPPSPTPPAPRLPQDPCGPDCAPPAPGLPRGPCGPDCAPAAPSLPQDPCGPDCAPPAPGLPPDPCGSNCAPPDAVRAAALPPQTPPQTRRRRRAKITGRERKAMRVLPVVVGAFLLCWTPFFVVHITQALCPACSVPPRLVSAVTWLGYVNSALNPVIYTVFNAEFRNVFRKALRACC

D5 receptor subtype = D5 receptor subtype (Homo sapiens, UniProt P21918); settings: cited from earlier work
Sequence of D5 receptor subtype (P21918 whole entry): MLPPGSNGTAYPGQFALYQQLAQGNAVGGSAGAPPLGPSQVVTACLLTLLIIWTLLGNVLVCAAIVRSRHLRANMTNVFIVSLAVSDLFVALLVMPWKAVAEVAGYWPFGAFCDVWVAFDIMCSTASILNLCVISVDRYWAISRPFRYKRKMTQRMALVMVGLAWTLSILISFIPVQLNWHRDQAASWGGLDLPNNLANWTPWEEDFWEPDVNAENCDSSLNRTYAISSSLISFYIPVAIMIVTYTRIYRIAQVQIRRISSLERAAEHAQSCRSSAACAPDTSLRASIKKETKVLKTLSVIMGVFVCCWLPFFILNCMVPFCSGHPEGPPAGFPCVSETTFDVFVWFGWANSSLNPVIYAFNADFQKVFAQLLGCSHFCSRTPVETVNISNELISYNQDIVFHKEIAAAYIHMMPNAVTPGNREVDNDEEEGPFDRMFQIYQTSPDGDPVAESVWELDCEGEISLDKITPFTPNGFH

5-HT2a receptor = 5-HT2a receptor (Homo sapiens, UniProt P28223); settings: compared to other antipsychotics; cited from earlier work
Sequence of 5-HT2a receptor (P28223 whole entry): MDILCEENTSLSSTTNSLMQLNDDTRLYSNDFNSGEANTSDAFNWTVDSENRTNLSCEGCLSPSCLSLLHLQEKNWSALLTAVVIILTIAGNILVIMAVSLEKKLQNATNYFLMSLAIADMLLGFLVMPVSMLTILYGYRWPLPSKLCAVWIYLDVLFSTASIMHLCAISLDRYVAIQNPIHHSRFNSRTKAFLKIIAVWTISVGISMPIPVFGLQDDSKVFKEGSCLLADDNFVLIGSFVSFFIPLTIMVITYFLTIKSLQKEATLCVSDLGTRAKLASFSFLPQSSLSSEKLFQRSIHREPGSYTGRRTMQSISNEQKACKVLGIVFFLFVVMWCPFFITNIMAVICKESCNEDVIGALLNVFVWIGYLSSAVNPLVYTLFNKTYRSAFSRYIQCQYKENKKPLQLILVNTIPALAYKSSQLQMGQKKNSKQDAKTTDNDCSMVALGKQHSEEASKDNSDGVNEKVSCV

[3] = test system: serotonin receptor subtypes; settings: cited from earlier work
[4] = test system: alpha-adrenergic receptor subtypes; settings: cited from earlier work
[5] = test system: histamine receptor subtypes; settings: cited from earlier work
muscarinic receptors = settings: cited from earlier work
sigma sites = settings: cited from earlier work
[6] = 2014 study, rank among 30 psychiatric drugs; cited from earlier work

Compound | NOR result compared to LB-104 (PCP-treated rats [1]) | effect on Discrimination Index (DI) (PCP-treated rats [1]; 15 mg/kg) | effect on Discrimination Index (DI) (PCP-treated rats [1]; 45 mg/kg) | effect on sniffing index (social interaction) (PCP-treated rats [2]; 5 mg (printed)) | effect on sniffing index (social interaction) (PCP-treated rats [2]; 45 mg/kg) | affinity (D1 receptor subtype) | affinity (D4 receptor subtype) | affinity (D5 receptor subtype) | activity at the 5-HT2a receptor (5-HT2a receptor) | affinity [3] | affinity [4] | affinity [5] | affinity (muscarinic receptors) | affinity (sigma sites) | passive diffusion across a PAMPA membrane (Pe) [6]
CCN1CCCC1CNC(=O)c1cc(S(=O)(=O)CC)c(NC)cc1OC (racemic) [LB-102] | comparable results | significant improvement | significant improvement | significant effect | significant effect |  |  |  |  |  |  |  |  |  | 
CCN1CCCC1CNC(=O)c1cc(S(=O)(=O)CC)c(N)cc1OC (stereo not drawn) [Amisulpride, 4-amino-N-(((1-ethyl-2-pyrrolidinyl)methyl)-5-(ethylsulfonyl))-2-methoxybenzamide] |  |  |  |  |  | without any affinity | without any affinity | without any affinity | not noted to have any activity | low affinity | low affinity | low affinity | low affinity | low affinity | lowest of 30 psychiatric drugs tested
CCN1CCC[C@@H]1CNC(=O)c1cc(S(=O)(=O)CC)c(NC)cc1OC [LB-104] |  | significant improvement | significant improvement |  | significant effect |  |  |  |  |  |  |  |  |  | 
